Reference: paper PMC12169615, “Fluorescent 4‑Nitrobenzo-2-oxa-1,3-diazole-Coupled Bile Acids as Probe Substrates of Hepatic and Intestinal Bile Acid Transporters of the Solute Carrier Families SLC10 and SLCO” (Journal of Medicinal Chemistry, 2025)
Where “and” joins values, the source holds several entries; their conditions need not be identical. Identical values can stand only once.

What was measured:
mouse mAsbt = biological target: T1, mouse mAsbt (Mus musculus, UniProt P70172); assay: Quantitative uptake of 3-NBD-BA in carrier-expressing HEK293 cells (fluorescence reader); type: cell-based; parameters: stably transfected with the full open reading frames of human NTCP, ASBT, SOAT, OATP1B1, and OATP1B3 as well as mouse mNtcp and mAsbt; expressed in transfected cells; conditions: mAsbt-HEK293, 25 μM, 37 °C, +Na+ vs -Na+
T1 sequence (P70172 1-348): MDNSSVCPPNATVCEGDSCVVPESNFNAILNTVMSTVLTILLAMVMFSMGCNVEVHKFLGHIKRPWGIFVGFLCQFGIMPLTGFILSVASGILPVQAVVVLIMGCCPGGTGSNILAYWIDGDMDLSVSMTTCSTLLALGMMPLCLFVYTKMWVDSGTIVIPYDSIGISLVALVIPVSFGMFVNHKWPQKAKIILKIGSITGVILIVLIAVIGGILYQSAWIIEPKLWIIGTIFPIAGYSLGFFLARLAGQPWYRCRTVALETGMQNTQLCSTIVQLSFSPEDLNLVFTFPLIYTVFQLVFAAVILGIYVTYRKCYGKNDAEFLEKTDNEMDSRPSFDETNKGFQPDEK
Experimental: (§1) For quantification of the transport activity of the synthesized NBD-BA, all cell lines were seeded on 96 well plates and transport experiments were performed under the same control conditions (-Na^+ control for the SLC10 carriers and nontransfected HEK293 cells for the OATP carriers) as before (Figure ). For each NBD-BA, a substrate concentration of 25 μM was used, and the uptake phase was terminated after 10 min of incubation at 37 °C. […] The transport ratios ranged from 3-fold to 39-fold. In direct comparison, 3α-NBD-TCA (14d) and 3α-NBD-GCA (16d) were transported better than their 3β-analogs 3β-NBD-TCA (14a) and 3β-NBD-GCA (16a), respectively, clearly pointing to a preference for the α-position over the β-position of the 3-NBD-label. In direct comparison between the taurine- or glycine-conjugation of the respective NBD-BA, there was a clear preference for 3α-NBD-GCA (16d) over 3α-NBD-TCA (14d), at least for NTCP and mAsbt, pointing to a favorable substrate recognition for glycine-conjugated NBD-BA.
(§2) 5 Quantitative uptake experiments with the 3-NBD-BA in HEK293 cells stably expressing the human carriers NTCP, ASBT, SOAT, OATP1B1, and OATP1B3, or the mouse carriers mNtcp and mAsbt. For the SLC10 carriers, all transport experiments were performed in the presence (filled bars) and the absence (hatched bars) of sodium. For the OATP carriers, uptake into carrier-expressing cells (filled bars) was compared to uptake into non-carrier-expressing HEK293 cells (hatched bars). All cell lines were incubated at 37 °C for 10 min with the indicated 3-NBD-BA at 25 μM. Then, cells were washed with PBS and subjected to fluorescence detection. The following fluorescent BA were analyzed: 3α-NBD-TCA (14d), 3β-NBD-TCA (14a), 3α-NBD-GCA (16d), 3β-NBD-GCA (16a), 3β-NBD-TCDCA (14b), 3β-NBD-CDCA (6b), 3β-NBD-DCA (6c), 3α-NBD-CA (6d), and 3β-NBD-CA (6a). Data represent means ± SD of triplicate determinations of representative experiments. […] RFU, relative fluorescence units. TEXT PRINTED IN THE PICTURE: 3α-NBD-TCA (14d): NTCP: 9 X; mNtcp: 30 X; ASBT: 2 X; mAsbt: 14 X | 3ß-NBD-TCA (14a): NTCP: 12 X; mNtcp: 20 X; mAsbt: 18 X | 3α-NBD-GCA (16d): NTCP: 27 X; mNtcp: 26 X; ASBT: 3 X; mAsbt: 39 X | 3ß-NBD-GCA (16a): NTCP: 15 X; mNtcp: 14 X; mAsbt: 5 X | 3ß-NBD-TCDCA (14b): NTCP: 5 X; mNtcp: 3 X; mAsbt: 4 X | 3ß-NBD-CDCA (6b): mNtcp: < 2 X; ASBT: < 2 X; mAsbt: < 2 X; OATP1B1: < 2 X; OATP1B3: < 2 X | 3ß-NBD-DCA (6c): mNtcp: < 2 X; ASBT: < 2 X; mAsbt: < 2 X | 3α-NBD-CA (6d): mNtcp: 2 X; mAsbt: 4 X | 3ß-NBD-CA (6a): NTCP: 2 X; mNtcp: 2 X; mAsbt: 2 X DOUBTS OF THE COPYIST ABOUT THIS PICTURE: The picture prints no panel letters, so the chart titles (NTCP, mNtcp, ASBT, mAsbt, OATP1B1, OATP1B3) are written in front of the values as the target. / Substance labels: the sign after '3' is printed like 'ß' and may be meant as 'β'. / The 'ns' marks and significance asterisks were left out as statistics. The SOAT chart prints only 'ns'.

human NTCP = biological target: T2, human NTCP (Homo sapiens, UniProt Q14973); assay: as above; type: cell-based; conditions: NTCP-HEK293, 25 μM, 37 °C, +Na+ vs -Na+
T2 construct: HEK293 cell lines stably transfected with the full open reading frames of human NTCP; expressed in transfected cells
T2 sequence (Q14973 1-349): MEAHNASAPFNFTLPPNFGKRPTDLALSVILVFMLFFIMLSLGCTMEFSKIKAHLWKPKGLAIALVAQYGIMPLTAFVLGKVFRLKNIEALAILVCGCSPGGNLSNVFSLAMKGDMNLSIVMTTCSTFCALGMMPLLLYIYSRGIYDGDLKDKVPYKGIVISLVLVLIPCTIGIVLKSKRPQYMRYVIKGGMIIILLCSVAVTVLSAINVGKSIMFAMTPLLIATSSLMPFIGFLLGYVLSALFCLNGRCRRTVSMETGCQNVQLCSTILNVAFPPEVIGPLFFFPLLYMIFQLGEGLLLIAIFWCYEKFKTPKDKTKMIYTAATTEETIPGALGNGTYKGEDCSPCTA
Experimental: as §1, §2

[1] = logP(o/w), octanol/water partition; conditions: 1:1 mixture of water and 1-octanol, fluorescence detection or liquid scintillation; for logP: 1-octanol/water, LogP(o/w)
Experimental: 9 Membrane permeability of the 3-NBD-BA and logP(o/w) values. […] The lipophilic and hydrophilic phases were separated by centrifugation and both phases were analyzed by fluorescence detection or liquid scintillation, respectively.
All NBD-BA were diluted to 1 pM in STB, and […] and emission spectra were measured from 300 to 650 nm (Spark Multimode Microplate, Tecan, Männedorf, Switzerland). […] The [^3H]-CA was generously provided by Prof. Dr. Alan Hofmann, University of California (San Diego, United States).

| Compound | Specific transport ratio mAsbt (25µM/10 min uptake) (mouse mAsbt) | Specific transport ratio NTCP (25µM/10 min uptake) (human NTCP) | LogP(o/w) [1] | logP [1] |
| --- | --- | --- | --- | --- |
| 7α-Hydroxy-3β-[(7-nitro-2,1,3-benzoxadiazol-4-yl)amino]-5β-cholan-24-oate [6b] | <2x x-fold | ns | – | – |
| 12α-Hydroxy-3β-[(7-nitro-2,1,3-benzoxadiazol-4-yl)amino]-5β-cholan-24-oate [6c] | <2x x-fold | ns | 2.147 | – |
| C[C@H](CCC(=O)O)[C@H]1CC[C@H]2[C@@H]3[C@H](O)C[C@@H]4C[C@@H](Nc5ccc([N+](=O)[O-])c6nonc56)CC[C@]4(C)[C@H]3C[C@H](O)[C@]12C [6a, 7α,12α-Dihydroxy-3β-[(7-nitro-2,1,3-benzoxadiazol-4-yl)amino]-5β-cholan-24-oate] | 2 x-fold and 2x x-fold | 2 x-fold and 2x x-fold | – | > 2 |
| C[C@H](CCC(=O)O)[C@H]1CC[C@H]2[C@@H]3[C@H](O)C[C@@H]4C[C@H](Nc5ccc([N+](=O)[O-])c6nonc56)CC[C@]4(C)[C@H]3C[C@H](O)[C@]12C [6d, 7α,12α-Dihydroxy-3α-[(7-nitro-2,1,3-benzoxadiazol-4-yl)amino]-5β-cholan-24-oate] | 4 x-fold and 4x x-fold | ns | – | 2.8 |
| C[C@H](CCC(=O)NCCS(=O)(=O)[O-])[C@H]1CC[C@H]2[C@@H]3[C@H](O)C[C@@H]4C[C@@H](Nc5ccc([N+](=O)[O-])c6nonc56)CC[C@]4(C)[C@H]3C[C@H](O)[C@]12C.[Na+] [14a] | 18x x-fold | 12x x-fold | – | 0.14 |
| C[C@H](CCC(=O)NCCS(=O)(=O)[O-])[C@H]1CC[C@H]2[C@@H]3[C@H](O)C[C@@H]4C[C@H](Nc5ccc([N+](=O)[O-])c6nonc56)CC[C@]4(C)[C@H]3C[C@H](O)[C@]12C.[Na+] [14d] | 14x x-fold | 9x x-fold | 0.027 | 0.03 |
| C[C@H](CCC(=O)NCC(=O)O)[C@H]1CC[C@H]2[C@@H]3[C@H](O)C[C@@H]4C[C@@H](Nc5ccc([N+](=O)[O-])c6nonc56)CC[C@]4(C)[C@H]3C[C@H](O)[C@]12C [16a] | 5x x-fold | 15x x-fold | – | -0.01 |
| C[C@H](CCC(=O)NCC(=O)O)[C@H]1CC[C@H]2[C@@H]3[C@H](O)C[C@@H]4C[C@H](Nc5ccc([N+](=O)[O-])c6nonc56)CC[C@]4(C)[C@H]3C[C@H](O)[C@]12C [16d] | 39x x-fold | 27x x-fold | – | 0.462 |
